This is an account of results in article PMC5707067, “Farnesyl phenolic enantiomers as natural MTH1 inhibitors from Ganoderma sinense” (Oncotarget, 2017).

The subject of data set [1] is human colorectal carcinoma cells (SW620). Briefly: CCK8 cytotoxicity assay, SW620. As to conditions: Homo sapiens, SW-620; CCK8, 48 h, carcinoma cell line. Type of data set: cell-based. The source says:
(§1) The growth inhibitory effects of the isolated farnesyl phenolic compounds (1–8) against carcinoma cell lines [human osteosarcoma cells (U2OS), human colorectal carcinoma cells (SW620), human ES-2 ovarian carcinoma cells (ES-2)] and normal tissue cell lines [human hepatic cells (Lo2), African green monkey kidney vero cells (Vero)] were further investigated using CCK8 assay method (Table 3).
(§2) Carcinoma cell lines [human osteosarcoma cells (U2OS), human colorectal carcinoma cells (SW620), human ES-2 ovarian carcinoma cells (ES-2)] and normal tissue cell lines [human hepatic cells (Lo2), African green monkey kidney Vero cells (Vero)] The U2OS, SW620, ES-2, Lo2 and Vero were obtained from ATCC (Manassas, VA, USA). The SW620 and Vero cells were cultured in Roswell Park Memorial Institute medium (RPMI), with 10% fetal bovine serum (Hyclone) and 1% penicillin-streptomycin (Sigma). Lo2, U2OS and ES-2 cells were grown in Dulbecco's modified eagle medium (DMEM), with 10% fetal bovine serum (Hyclone) and 1% penicillin-streptomycin (Sigma). All of these cells were cultured at 37°C in a humidified atmosphere with 5% CO2. For CCK8 assay cytotoxicity evaluation of compounds, all cells were separately plated at a density of 1 × 10^4 cells/well in a 96 well plate. Cells were cultivated at 37°C in 5% CO2 atmosphere for 24 h, then medium in the wells was replaced with fresh medium containing compounds which were diluted in 8 dilution steps covering the range from 200 μM to 1.5625 μM. And DMSO was used as negative control. After 48 h incubation, 10 μL of CCK8 solution was added to each well. After 30 min, the optical density (OD) of each well was measured at wavelength of 450 nm on spectrophotometer. Data were corrected for background (no-cell control) and expressed as a percentage of the value for untreated cells. The IC50 values of the isolated compounds were derived from the mean OD values of the triplicate tests versus the drug concentration curves.
(In general: Formazan colour is commonly taken as a measure of viable cells.)

The nature of data set [2]: CCK8 cytotoxicity assay, Lo2. The data set is classed as cell-based, human. As to conditions: human, Lo2 human hepatic cells (normal tissue cell line), CCK8, 48 h.
Description: as §1, §2

Data set [3] concerns the target T1, MTH1 (Homo sapiens, UniProt P36639). Briefly: Microscale thermophoresis (MST) binding assay. Background: Microscale thermophoresis detects binding through changes in fluorescence in a small temperature gradient.
Description: Microscale thermophoresis method (MST) was employed to assay the binding affinity between the compounds and MTH1. […] The dissociation constant Kd values were automatically calculated by using the NT Analysis software (Nano Temper Technologies, München, Germany).
Recombinant human MTH1 was labeled with the Monolith NT™ Protein Labeling Kit RED (Cat#L001) according to the supplied labeling protocol [32]. Labelled MTH1 was kept constant at 100 nM, while all samples tested were diluted in a 20 mM HEPES (pH 7.5) and 0.05 (v/v) % Tween-20. Compounds were diluted in 12 dilution steps covering the range from 500 μM to 200 nM. After 10 min incubation at room temperature about 37°C, samples were loaded into Monolith™ standard-treated capillaries and the thermophoresis was measured at 25°C after 30 min incubation on a Monolith NT.115 instrument (NanoTemper Technologies, München, Germany). Laser power was set to 20% using 30 seconds on-time. The LED power was set to 100%. The dissociation constant Kd values were fitted by using the NTAnalysis software (NanoTemper Technologies, München, Germany). The Kd value of the binding was obtained in two ways. The first way was calculated by thermophoresis curve when there was no fluorescent change during the initial fluorescence scanning. The second way was calculated from the initial fluorescence scanning curve when compounds bound in the sites which directly interfered the fluorescence.
In data set [4] the test system is human osteosarcoma cells (U2OS). The experiment in a line: CCK8 cytotoxicity assay, U2OS. The data set is classed as cell-based. Particulars: Homo sapiens, U2OS; CCK8, 48 h, carcinoma cell line.
Description: as §1, §2

Data set [5] addresses T2, MTH1 in SW620 cells (Homo sapiens, UniProt P36639).
T2 construct: endogenous in cells; host or cells: SW620
Briefly: Cellular thermal shift assay (CETSA). The data set is classed as cell-based. As to conditions: 30 μM, 12 hours, 44-54°C, vs DMSO, Western blot. As for the experimental part: The cellular thermal shift assay (CETSA) was recently developed to further confirm the interaction between the target and the compound in vitro by Western blot assay. CETSA was applied based on the principles that the ligand binding gave rise to the thermal stabilization of target proteins. The thermal stability of MTH1 in SW620 cells was tested at the temperature range of 44-54°C after the pretreatment of compound 1 for 12 hours (Figure 6E and 6F). Correspondingly, the control cells were treated with DMSO. […] Compared with the control group, the thermal stability of MTH1 protein in compound 1 pretreated cells was better under the same temperature condition.
CETSA was developed as a method to directly detect the binding capacity of compounds with targets at the cellular level, based on the principle of ligand-induced target protein stabilization. […] Subsequently, cells were analysed by Western blot assay.
The harvested cells were lysed with liquid nitrogen and the freeze-thaw cycles were repeated twice. […] Proteins was quantified by Bradford reagent (Bio-Rad, USA). The same amount of proteins (20-40 μg) were loaded onto 15% SDS-PAGE gels and transferred to polyvinylidene difluoride membranes (PVDF) (Millipore, USA) and analyzed using the MTH1-antibody (Proteintech) at a concentration of 1: 500. […]
On the technique in general: A western blot detects proteins with antibodies after separation by electrophoresis.

Data set [6] addresses T1, MTH1. Briefly: Enzyme inhibition assay (8-oxo-dGTP hydrolysis, HPLC). The arrangement: hexa-histidine (His6) (N, cleaved yes); made in house; host or cells: E. coli BL21 Star. As to conditions: 8-oxo-dGTP 25 μM, purified MTH1. The data set is classed as biochemical. As for the experimental part: Microscale thermophoresis method (MST) was employed to assay the binding affinity between the compounds and MTH1. This technology can quantify protein-protein interactions or protein-small molecule interactions with high sensitivity through detecting fluorescent changes of molecules during thermophoresis.
To identify the efficacy of the eight compounds, an enzyme inhibition assay was carried out. […] Then the reaction was stop by the addition of 20 μL ice-cold Na2EDTA (50 mM). The reaction mixture was centrifugated at 15000 rpm at 4°C for 10 min. 20 μL of supernatant was injected on an HPLC column (Ultimate AQ-C18 RP-18e, 250 mm × 4.6 mm × 5 μm), and eluted isolate with 100 mM Na2HPO4-NaOH (pH 5.5)/MeOH 95:5 with flow rate 1 mL/min at column room of 30°C. […] Measurements were done in triplet, and IC50 values were calculated to compare the efficiency of various compounds.

A short description of data set [7]: CCK8 cytotoxicity assay, Vero. The data set is classed as cell-based, African green monkey. As to conditions: African green monkey, Vero kidney cells (normal tissue cell line), CCK8, 48 h.
Description: as §1, §2

Bounds are passed on as bounds.

Turning to `CO[C@]1(c2cc(O)cc(O)c2)C=C(CCCC(CO)CC/C=C(\C)COC(=O)/C=C/c2ccc(O)cc2)C(=O)O1` (stereo partly drawn) [Compound 1, (5R)-3-{9-[(E)-coumaroyl]-4-hydroxymethyl-8-methyl-7-nonene}-5-(3,5-dihydroxyphenyl)-5-methoxy-2(5H)-furanone], the results for the IC50 in data set [1], in data set [4] and in data set [6] were 45 ± 1.23 µM, 111 ± 1.29 µM and 10.9 ± 1.04 µM, respectively. For the same compound, the concentration for half-maximal inhibition (IC50) (as a rule, the point on the concentration scale where inhibition reaches its midpoint) at 48 h in data set [2] was 150.3 ± 1.09 µM; in data set [7], greater than 300 µM. In addition, in data set [3], the Kd – broadly, the constant that tells how readily two partners part at equilibrium – turned out to be 4.71 ± 0.686 µM. Further, the “thermal stability of MTH1 protein” value in data set [5] is “better”.
